4 compounds from PMC9499525, “Tissue-restricted inhibition of mTOR using chemical genetics” (Proceedings of the National Academy of Sciences of the …, 2022) can be followed below.

Broadly, the Papp A→B is the apparent permeability from the apical to the basolateral side of a cell layer. A higher Papp A→B goes with fast passage. What is called Papp B→A is the apparent permeability from the basolateral to the apical side of a cell layer. The Papp is a coefficient for how fast a substance crosses the barrier.

The target of data set [1] is T1, FKBP12-HA (wild-type) / GST-mTOR FRB domain ternary complex (Homo sapiens, UniProt P42345+P62942).
T1 construct: recombinant HA-tagged wild-type or V55G mutant FKBP12 with GST-tagged mTOR FRB domain; 8xHis (cleaved yes); made in house; host or cells: E. coli BL21 (DE3) for FKBP12
Kind of data set: TR-FRET ternary complex formation, wild-type FKBP12 with mTOR FRB. The format is binding. Here is the method: TR-FRET assay was performed using recommended conditions from Cisbio with slight modifications. FKBP12-HA, FKBP12 V55G-HA, and GST-mTORFRB recombinant proteins were each diluted to 5 nM in assay buffer (20 mM HEPES pH 7.5, 150 mM NaCl, 0.05% Tween-20, 0.1% bovine serum albumin [BSA], 0.5 mM dithiothreitol [DTT]). Anti-GST-Tb (Cisbio) and Anti-HA-XL665 (Cisbio) were diluted to 0.625 µg/mL and 5 µg/mL, respectively, in assay buffer. Rapa* compounds and FK506 were diluted to 50 µM and rapamycin to 5 µM in assay buffer containing 5% DMSO, and threefold serial dilution series were made from these solutions. […] Time-resolved fluorescence was read on a Tecan Spark 20M plate reader with the following parameters: Lag time: 60 µs; Integration time: 500 µs; Read A: Excitation filter 320 ([25]) nm, Emission filter 610 ([25]) nm, Gain 130; Read B: Excitation filter 320 ([25]) nm, Emission filter 665 ([8]) nm, Gain 165. […]
Human FKBP12 coding sequence was cloned a pET-47b bacterial expression vector using Gibson assembly and a C-terminal HA-tag was added by QuickChange PCR. FKBP12 proteins were expressed as 8xHis fusions in E. coli BL21 (DE3) cells. […]
PAMPA was performed by Quintara Discovery as described previously (2). Compounds were analyzed at 100 µM in PBS and measured using liquid chromatography-mass spectrometry (LC-MS) after 5 hours. […]
In general terms: Time-resolved FRET reads energy transfer from a long-lived donor to a nearby acceptor.

Data set [2] concerns the target T2, FKBP12 V55G-HA / GST-mTOR FRB domain ternary complex (Homo sapiens, UniProt P42345+P62942, V56G).
T2 construct: recombinant HA-tagged wild-type or V55G mutant FKBP12 with GST-tagged mTOR FRB domain; 8xHis (cleaved yes); made in house; host or cells: E. coli BL21 (DE3) for FKBP12
Kind of data set: TR-FRET ternary complex formation, FKBP12 V55G with mTOR FRB. The format is binding. How it is done: TR-FRET assay was performed using recommended conditions from Cisbio with slight modifications. FKBP12-HA, FKBP12 V55G-HA, and GST-mTORFRB recombinant proteins were each diluted to 5 nM in assay buffer (20 mM HEPES pH 7.5, 150 mM NaCl, 0.05% Tween-20, 0.1% bovine serum albumin [BSA], 0.5 mM dithiothreitol [DTT]). Anti-GST-Tb (Cisbio) and Anti-HA-XL665 (Cisbio) were diluted to 0.625 µg/mL and 5 µg/mL, respectively, in assay buffer. Rapa* compounds and FK506 were diluted to 50 µM and rapamycin to 5 µM in assay buffer containing 5% DMSO, and threefold serial dilution series were made from these solutions. We mixed 4 µL diluted FKBP12-HA protein, 4 µL diluted GST-mTORFRB, and 4 µL of compound or DMSO control in a well of a black low-volume 384-well plate (Corning 4514), and the mixture was incubated at room temperature for 1 h. We then added 4 µL of Anti-GST-Tb, and 4 µL Anti-HA-XL665, and the mixture was incubated at room temperature for an additional 1 h. Time-resolved fluorescence was read on a Tecan Spark 20M plate reader with the following parameters: Lag time: 60 µs; Integration time: 500 µs; Read A: Excitation filter 320 ([25]) nm, Emission filter 610 ([25]) nm, Gain 130; Read B: Excitation filter 320 ([25]) nm, Emission filter 665 ([8]) nm, Gain 165. Three replicates were performed for each assay condition. […]
Human FKBP12 coding sequence was cloned a pET-47b bacterial expression vector using Gibson assembly and a C-terminal HA-tag was added by QuickChange PCR. FKBP12 proteins were expressed as 8xHis fusions in E. coli BL21 (DE3) cells. […] Samples were then purified by size exclusion chromatography, concentrated to 10-20 mg/mL, and snap frozen in liquid nitrogen. pGEX-2T FRB was a gift from Jie Chen (Addgene plasmid #26607). mTOR FRB was expressed as a GST-fusion and purified as previously described (1). […]
PAMPA was performed by Quintara Discovery as described previously (2). Compounds were analyzed at 100 µM in PBS and measured using liquid chromatography-mass spectrometry (LC-MS) after 5 hours. […] Compounds were analyzed at 10 µM and measured by LC-MS after 1 hour.

A short description of data set [3]: Bidirectional Caco-2 cell permeability. The format is in vitro ADME. The settings on record: human, LC-MS. How it is done:
PAMPA and Caco-2 membrane permeability assays […]
MS) after 5 hours. Bidirectional Caco-2 cell permeability assay was performed by Quintara
Discovery. Compounds were analyzed at 10 µM and measured by LC-MS after 1 hour.
(Caco-2 monolayers are a common model of the intestinal barrier.)

Data set [4] can be described thus: PAMPA membrane permeability. The class given is in vitro ADME. Particulars: 100 µM in PBS, LC-MS. Here is the method:
PAMPA and Caco-2 membrane permeability assays
PAMPA was performed by Quintara Discovery as described previously (2). Compounds were
analyzed at 100 µM in PBS and measured using liquid chromatography-mass spectrometry (LC-
On the technique in general: In PAMPA a lipid-coated filter parts donor from acceptor wells.

Data set [5] concerns S. cerevisiae BY4741 fpr1-KO expressing human FKBP12 variants. Kind of data set: Yeast disk diffusion growth inhibition assay. Particulars: 100 µM on disk, 3 d. The format is cell-based, Saccharomyces cerevisiae. The text has this: BY4741 fpr1::URA3 yeast were generated by homologous recombination, selected on Ura- synthetic complete medium and subsequently grown in yeast extract-peptone-dextrose (YPD) medium ([46]). Human FKBP12 coding sequence was cloned via Gibson assembly into a pCH043 yeast expression vector, which had been previously modified with an HIS3 selection open reading frame (ORF). The C-terminal HA-tag and F46/V55 mutations were introduced by site-directed mutagenesis PCR. Plasmids were transformed into the BY4741 fpr1::URA3 strain and selected on His- synthetic complete medium. Isolated strains were verified by plasmid sequencing. To prepare yeast protein lysates, 2 optical density (OD) equivalents from an overnight culture was resuspended in 200 µl 0.1 M NaOH and incubated at room temperature for 15 min. Cells were pelleted, resuspended in 50 µL 2x SDS loading dye, and heated at 95 °C for 5 min. Following centrifugation at 20,000 × g for 10 min, supernatant was saved for analysis.
Yeast strains containing FKBP12-expression vectors were shaken overnight at 30 °C in 3 mL His- synthetic complete media. 0.1 OD of culture was spun down, resuspended in 1 mL sterile water, and 100 µL was spread on His-synthetic media containing galactose/raffinose to induce protein expression. Plates were incubated at 30 °C for 1 h to dry. Filter paper circles were prepared with a hole punch, placed on the plate, and 5 µL of DMSO, 100 µM rapamycin, or 100 µM Rapa* compound was pipetted onto the filter paper. Plates were incubated at 30 °C for 3 d before zones of growth inhibition were measured.

Data set [6] deals with Drosophila larvae (w1118 control and FKBP12 V55G transgenic). Kind of data set: Drosophila larval development (pupae 9 d after egg laying). The class given is in vivo. How it is done:
All Drosophila stocks and crosses were maintained on standard cornmeal-molasses food at 25 °C using a 12-h light/dark cycle. To generate UAS-FKBP12 V55G-HA transgenic lines, human FKBP12 V55G-HA ORF was cloned into a pUAST-attB vector between EcoR-I and Xho-I restriction sites. This construct was then integrated into an attB site using phiC31 integrase with the assistance of Rainbow Transgenic Flies, Inc. The driver stocks da-GAL4 (ubiquitous), elav-GAL4 and nSyb-GAL4 (neuronal-specific), Mef2-GAL4 and mhc-GAL4 (musculature), and 2–286-GAL4 and phm-GAL4 (ring-gland-specific) were obtained from Bloomington Drosophila Stock Center. The crossing schemes used in this study are depicted in SI Appendix, Fig. S11. For rapamycin or Rapa*3Z related experiments, fly food was prepared freshly 24 h before each experiment.
Fly food containing ethanol vehicle was used as control. […] Three biological replicates were used for each experiment. Data were analyzed using Prism 9.0 (GraphPad).

In data set [7] the test system is Flp-In 293 cells with and without FKBP12 V55G-HA. Kind of data set: Cell growth by CellTiter-Glo in Flp-In 293 cells. The format is cell-based, human. Particulars: 72 h treatment.
Protocol: All cell lines were maintained in DMEM (Gibco) supplemented with 10% heat-inactivated FBS (Axenia Biologix) at 37 °C in 5% CO2. Flp-In T-REx 293 cells were obtained from Thermo Fisher supplemented with 15 µg/mL blasticin and 100 µg/mL Zeocin. […] When indicated, cells were treated with drugs at 60–80% confluency at a final DMSO concentration of 0.1%.
Cells were seeded into 96-well tissue-culture treated plates (Greiner) and were allowed to incubate for 24 h. Cells were treated with indicated compounds and incubated for 72 h (100 µL final well volume, 0.1% DMSO). Cell viability was assessed by CellTiter-Glo (Promega). Assay reagent was diluted 1:4 in PBS containing 1% Triton X-100, and 100 µL was added to each well and mixed on a plate shaker for 20 min. Luminescence was measured on a Tecan Spark 20M.

The structures appear in SMILES notation. Bounds are passed on as bounds.

T2 sequence (P62942 whole entry V56G, the tested form may be a part): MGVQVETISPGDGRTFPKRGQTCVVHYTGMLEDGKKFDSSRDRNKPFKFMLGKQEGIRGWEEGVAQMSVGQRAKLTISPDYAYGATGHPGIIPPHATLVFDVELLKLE
T2 sequence (P42345 2012-2144 limits assumed): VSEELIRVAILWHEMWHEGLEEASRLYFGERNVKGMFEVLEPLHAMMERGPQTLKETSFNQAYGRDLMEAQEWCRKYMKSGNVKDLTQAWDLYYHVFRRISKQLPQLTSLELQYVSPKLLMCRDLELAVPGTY
T1 sequence (P62942 whole entry, the tested form may be a part): as the sequence (P62942 whole entry V56G, the tested form may be a part) above, with G56V counted along it
T1 sequence (P42345 2012-2144 limits assumed): as the sequence (P42345 2012-2144 limits assumed) above

Consider `C=CC[C@@H]1/C=C(\C)C[C@H](C)C[C@H](OC)[C@H]2O[C@@](O)(C(=O)C(=O)N3CCCC[C@H]3C(=O)O[C@H](/C(C)=C/[C@@H]3CC[C@@H](O)[C@H](OC)C3)[C@H](C)[C@@H](O)CC1=O)[C@H](C)C[C@@H]2OC` [FK506, reference compound], for which, in data set [1], the “Ternary complex induction (in words), wild-type FKBP12” value was “failed to induce either ternary complex”. In addition, the “Ternary complex induction (in words), FKBP12 V55G” value in data set [2] is “failed to induce either ternary complex”.

Turning to `CO[C@H]1C[C@@H]2CC[C@@H](C)[C@@](O)(O2)C(=O)C(=O)N2CCCC[C@H]2C(=O)O[C@H]([C@H](C)C[C@@H]2CC[C@@H](O)[C@H](OC)C2)C/C(=N/O)[C@H](C)/C=C(\C)[C@@H](O)[C@@H](OC)C(=O)[C@H](C)C[C@H](C)/C=C/C=C/C=C/1C` [Rapa*-1Z], in data set [3], the Papp A→B at 1 h, 10 µM was < 0.3 ×10⁻⁶ cm/s and the Papp B→A at 1 h, 10 µM was found to be 1.6 ×10⁻⁶ cm/s. In addition, the apparent permeability (Papp) at 5 h, 100 µM in data set [4] is 0.002 ×10⁻⁶ cm/s.

On to `C=CCO/N=C1/C[C@@H]([C@H](C)C[C@@H]2CC[C@@H](O)[C@H](OC)C2)OC(=O)[C@@H]2CCCCN2C(=O)C(=O)[C@]2(O)O[C@@H](CC[C@H]2C)C[C@H](OC)/C(C)=C/C=C/C=C/[C@@H](C)C[C@@H](C)C(=O)[C@H](OC)[C@H](O)/C(C)=C/[C@H]1C` [Rapa*-9Z], for which, in data set [3], the Papp A→B at 1 h, 10 µM was < 0.1 ×10⁻⁶ cm/s and the Papp B→A at 1 h, 10 µM was determined as 0.4 ×10⁻⁶ cm/s. This compound showed an apparent permeability (Papp) at 5 h, 100 µM in data set [4] of 0.014 ×10⁻⁶ cm/s.

For `CO[C@H]1C[C@@H]2CC[C@@H](C)[C@@](O)(O2)C(=O)C(=O)N2CCCC[C@H]2C(=O)O[C@H]([C@H](C)C[C@@H]2CC[C@@H](O)[C@H](OC)C2)CC(=O)[C@H](C)/C=C(\C)[C@@H](O)[C@@H](OC)C(=O)[C@H](C)C[C@H](C)/C=C/C=C/C=C/1C` [rapamycin, reference compound], the “Growth inhibition of yeast, fpr1-KO with empty vector” value in data set [5] is recorded as “conferred resistance to rapamycin”. For the same compound, in data set [5] (fpr1-KO + human FKBP12), the “Growth inhibition of yeast expressing wild-type human FKBP12” value is recorded as “rescued full sensitivity”. The “Growth inhibition of yeast expressing FKBP12 F46/V55 mutants” value in data set [5] (mutant strains) is recorded as “retained activity, albeit reduced, in the mutant strains”. The “Effect on larval development in wild-type animals” value in data set [6] (wild-type (w1118) larvae, compound in food) is “profound inhibition of larval development”. Besides, the “Dose required for complete inhibition of larval development” value in data set [6] (wild-type flies (w1118), in food, 9 d after egg laying) is reported as 1 µM. In data set [3], this compound registered a Papp A→B at 1 h, 10 µM of 0.8 ×10⁻⁶ cm/s and a Papp B→A at 1 h, 10 µM of 2.3 ×10⁻⁶ cm/s. For the same compound, the “Cell growth inhibition, 293 cells with and without FKBP12 V55G” value in data set [7] is “inhibited mutant and wild-type cells equally”. In data set [2] (FKBP12 vs FKBP12 V55G), the “Selectivity of ternary complex induction, wild-type vs V55G” value is “slightly selective toward the wild-type complex”. This compound also displayed an apparent permeability (Papp) at 5 h, 100 µM in data set [4] of 0.209 ×10⁻⁶ cm/s.
